# Experiments:
# [1] = tested on: renal brush border (RBB) enzymes; conditions: Cy5 labelled model peptide; cited from earlier work
# Source text: High kidney uptake of radiopharmaceuticals can usually be explained by the long residence time of radiometabolites generated after lysosomal proteolysis. This process is followed by glomerular filtration and reabsorption of the radiometabolites in renal cells. By inserting a linker which is specifically cleaved by enzymes on the brush border membrane located in the lumen of the proximal renal tubule, the radiometal-chelator moiety can be rapidly excreted via the bladder while the peptide remains in the kidneys. The MVK sequence was initially conjugated to antibody fragments by Uehara et ...
# [2] = in vivo; cited from earlier work
# Source text: The purpose of this study is to report the synthesis and radiolabelling of new PSMA derivatives containing: (i) a PSMA-targeting vector, (ii) an albumin binder, namely 4-(p-iodophenyl)butyric acid, (iii) an amino acid sequence which could be specifically recognized and cleaved by renal brush border (RBB) enzymes, and (iv) a DOTA chelator which can be labelled with In-111 for imaging or Lu-177 for therapy. Previous studies reported that presence of an albumin-binding moiety increases blood residence time of the radiopharmaceutical agent, and ultimately leads to a higher accumulation of the PSMA ...
# [3] = tested on: metastatic castration-resistant prostate cancer; conditions: cited from earlier work
# Source text: The prostate-specific membrane antigen (PSMA) is overexpressed in prostate cancer cells, and its expression increases with disease progression. PSMA is therefore an attractive target for TRT of prostate cancer. Currently, several compounds targeting this protein are being investigated for imaging and treatment of prostate cancer, with PSMA-617 advancing as a lead candidate (figure 1).
# [4] = tested on: renal brush border enzymes; conditions: labelled with gallium-68; cited from earlier work
# Source text: We hypothesized that this radiolabelled impurity might come from the radiation-induced oxidation of the methionine residue of the cleavable linker. Bendre et al. recently synthesized DOTA-AmBz-M(O)VK(HTK01166)-OH, the oxidized analogue of the PSMA-targeted derivative DOTA-AmBz-MVK(HTK01166)-OH, and performed labelling with gallium-68. They observed that the oxidized product was not cleaved by the renal brush border enzymes. It confirms that oxidation of the methionine is undesirable, as it leads to loss of enzyme recognition and consequently less cleavage of the conjugate. This radiolys ...
# [5] = in vivo; cited from earlier work; remark: listed apart in the source
# Source text: In this study, we synthesized PSMA-targeted radiopharmaceuticals that combined an albumin binder and a cleavable linker to optimize their therapeutic efficacy. We selected the albumin-binder containing PSMA-617 derivative HTK01169 (figure 1), reported by Kuo et al., as a reference. [^177Lu]Lu-HTK01169 delivers an eightfold higher dose to the tumour than [^177Lu]Lu-PSMA-617, but also a 17-fold higher dose to the kidneys. The amino acid sequences Gly-Tyr-Lys (GYK) and Met-Val-Lys (MVK) were selected as the cleavable linkers. Effective cleavage of the MVK sequence in ^67/68Ga-labell ... || The purpose of this study is to report the synthesis and radiolabelling of new PSMA derivatives containing: (i) a PSMA-targeting vector, (ii) an albumin binder, namely 4-(p-iodophenyl)butyric acid, (iii) an amino acid sequence which could be specifically recognized and cleaved by renal brush border (RBB) enzymes, and (iv) a DOTA chelator which can be labelled with In-111 for imaging or Lu-177 for therapy. Previous studies reported that presence of an albumin-binding moiety increases blood residence time of the radiopharmaceutical agent, and ultimately leads to a higher accumulation of the PSMA ...
# [6] = assay type: in vitro ADME, mouse
# Method: Stability was determined for both the In-111 and Lu-177 labelled compounds by mixing 20 µl of radiolabelled sample (approx. 5 MBq) with 80 µl phosphate buffered saline (PBS) (0.01 M, pH 7.4), or mixing 70 µl of radiolabelled sample (approx. 20 MBq) with 330 µl of mouse serum, and heating at 37°C for up to 24 h. After incubation, 50 µl of the mouse serum solution is added to a separate vial containing acetonitrile (50 µl) and the sample is centrifuged for 20 min. The supernatant and precipitate are separated, and the activity is measured to determine the binding to serum proteins. The supernatant is then analysed by radio-HPLC. The PBS solution is loaded directly onto the radio-HPLC.
# [7] = plus standard of care, versus standard of care, ref NCT03511664
compound,measurement,setting,value
H-GGGFK(Cy5)-NH2 [Cy5 labelled model peptide with GFK linker],cleavage on incubation with RBB enzymes,[1],82%
[^177Lu]Lu-PSMA-617,uptake in the kidneys at 1 h,[2],approximately 10 % IA g^−1
same,uptake in the kidneys at 24 h,[2],less than 1 % IA g^−1
same,patients who do not respond significantly to the treatment,[3],approximately 30%
same,incidence of adverse effects (grade 3 or 4),"[3]; human, in vivo",52.7%
same,response rates,[3]; patients,over 50%
same,imaging-based progression free survival (median),[3]; [7],8.7 months
same,overall survival (median),[3]; [7],15.3 months
DOTA-AmBz-M(O)VK(HTK01166)-OH,cleavage by renal brush border enzymes,[4],not cleaved
"O=C(O)CC[C@H](NC(=O)N[C@@H](CCCCNC(=O)[C@H](Cc1ccc2ccccc2c1)NC(=O)[C@H]1CC[C@H](CNC(=O)[C@H](CCCCNC(=O)CN2CCN(CC(=O)O)CCN(CC(=O)O)CCN(CC(=O)O)CC2)NC(=O)[C@H](CCC(=O)O)NC(=O)CCCc2ccc(I)cc2)CC1)C(=O)O)C(=O)O [[^177Lu]Lu-HTK01169, metal not drawn]",radiation dose to the kidneys relative to [177Lu]Lu-PSMA-617,[5],17 fold
same,radiation dose to the tumour relative to [177Lu]Lu-PSMA-617,[5],eightfold
H-GGGYK(Cy5)-NH2 [Cy5 labelled model peptide with GYK linker],cleavage on incubation with RBB enzymes,[1],quantitative cleavage
N[C@@H](CCCCNC(=O)CN1CCN(CC(=O)O)CCN(CC(=O)O)CCN(CC(=O)O)CC1)C(=O)N[C@@H](Cc1ccc(O)cc1)C(=O)NCC(=O)NCCCC[C@H](NC(=O)[C@H](CCC(=O)O)NC(=O)CCCc1ccc(I)cc1)C(=O)NC[C@H]1CC[C@H](C(=O)N[C@@H](Cc2ccc3ccccc3c2)C(=O)NCCCC[C@H](NC(=O)N[C@@H](CCC(=O)O)C(=O)O)C(=O)O)CC1 [[^111In]-7] [metal not drawn],peak at 2.9 min (radiolabelled side-product) in mouse serum,[6],62%
